Results as given in publication PMC12624573, “The antigen presentation landscape of cytokine-stressed human pancreatic islets” (Cell reports, 2025).

Legend:
[1] = system: CD8+ T cells from PBMC; experiment: IFN-γ ELISpot, PBMC-derived in vitro expanded CD8+ T cell lines; assay type: cell-based, human; conditions: PBMC T cell lines, responding donors/donors tested
[2] = system: islet-derived T cell lines; experiment: Cytokine bead array (IFN-γ, TNF-α, IL-10), combined islet-derived T cell lines from donors with T1D; conditions: for islet derived T cell lines response to A2-S peptide pools or to single peptides: class I (A2) peptide pools or single peptides; for islet derived T cell lines response to A2-S peptide pools or to single peptides / islet derived T cell lines response to DR peptide pools or to single peptides: IFNg, TNFa, IL-10 secretion; for islet derived T cell lines response to DR peptide pools or to single peptides: class II (DR) peptide pools or single peptides
Procedure: Live pancreas slices (150–200 μm thick) were provided by nPOD. […] Ten slices were digested with 1 mg/mL collagenase-P (Sigma) in PBS at 37°C with shaking with a magnetic stir bar, with tissue dispersal visually monitored. After washing, islets were enriched by hand-picking, and single-islet-derived T-cell lines generated as described[51] with modifications. Single islets were plated in wells of 96 well round bottom plates (CoStar) on irradiated (5000 rads) allogeneic PBMC with AIM-V media (Thermo Fisher Scientific) supplemented with 2 mM L-glutamine, 5 mM HEPES, and 100 U/ml penicillin and 100 μg/mL streptomycin, 0.1 mM each non-essential amino acids, 1 mM sodium pyruvate, and 5% heat-inactivated human male AB serum (Grifols Diagnostic) with 5 μg/mL each of anti-CD3, anti-CD28 (BioLegend), anti-PD-1 (ligand blocking clone EH12.1, BD Biosciences) and anti-Fas (clone SM1/23: Thermo Fisher Scientific) with 20 U/ml IL-2, and 10 ng/mL IL-15 (R&D), and 50 nM mifepristone (Thermo Fisher Scientific). The lymphocytic outgrowth from individual islets was collected, re-plated, allowed to expand with IL-2 and IL-15, and cryopreserved in early passage (P1-P3). For these experiments, 7–10 T cell lines derived from single islets from each donor were combined. Each combined T cell line contained either >60% CD4 or CD8 T cells. For some experiments in order to enriched for any reactive T cells, combined islet-derived T cell lines were stimulated with individual peptides pools with the inclusion of 5 μg/mL soluble anti-CD28 (BD Biosciences), fed with 20 U/mL recombinant IL-2 (Proleukin) and recombinant 10 ng/mL IL-15 (R&D Systems) on Day 1, allowed to rest for 4–6 days, and then re-tested for reactivity to that peptide pool.
For islet-derived combined T cellana lines, either irradiated A*02:01-Hmy.2B-LCL or DRB1*03:01-expressing QBL B-LCL (Millipore Sigma) were pulsed for 2 h with indicated pools of peptides (each peptide at 2.5 μg/mL), washed and then co-cultured at 2x10^4/cells well with combined T cell lines at 5x10^4/cell in 96-well round bottom plates (CoStar) in 5%, heat-inactivated 5% human male AB serum (Grifols Diagnostic) in AimV (ThermoFisher) supplemented with 10 mM HEPES buffer, 2 mM L-glutamine, and 100 U/100 μg/ml penicillin/streptomycin (ThermoFisher) and 2.5 μg/mL soluble anti-CD28 (BD BioSciences). On Day 1, 20 U/mL recombinant IL-2 (Proleukin) and recombinant and 10 ng/mL IL-15 (R&D Systems) was added to all conditions.

[3] = system: CD4+ T cells from PBMC; experiment: IFN-γ ELISpot, PBMC-derived in vitro expanded CD4+ T cell lines; assay type: cell-based, human; set-up: key to T cell recognition by PBMC from a T1D donor (mark E) / T cell recognition by PBMC from a T1D donor: E: T cell recognition by PBMC from a T1D donor was tested and verified; see Figure 5; conditions: for T1D Donor T cell response / non-T1D Donor T cell response: PBMC T cell lines, responding donors/donors tested; for Number of donors whose CD4 T cells recognized the peptide (IFN-γ ELISpot): T1D donors, PBMC-derived lines (Figure 5J); for T cell recognition by PBMC from a T1D donor (mark E) / T cell recognition by PBMC from a T1D donor: MHC-II peptides; for T cell recognition by PBMC from a T1D donor (mark E): tested and verified, see Figure 5; for T cell recognition by PBMC from a T1D donor: superscript E on the peptide, G = verified with QBL cells
[4] = PTM and unmodified native Pool Peptides (pool PTM 1), 9-mer peptides
[5] = PTM and unmodified native Pool Peptides (pool PTM 1), long peptides
[6] = DRB1*03:01+ donor 6579, cytokine bead array (Figures 6I–6K)
[7] = SEC (Secretory) DR3 Peptides Set
[8] = SEC (Secretory) A2 Peptides Set
[9] = donor 6551, cytokine bead array, 48 h (Figures 6A–6C)

Sequence: EADFAIEAL [150-1]
- T1D Donor T cell response [1, 4]: 0/6
- non-T1D Donor T cell response [1, 4]: 0/4
- islet derived T cell lines response to A2-S peptide pools or to single peptides ([2]; donor 6551 lines): donor 6551 lines positive with IFNg, TNFa, IL10 secretion

Sequence: AVPEEEGPTVVLXPHPSLG [148–1]
- T1D Donor T cell response [3, 5]: 0/4
- non-T1D Donor T cell response [3, 5]: 0/4
- IFN-γ secretion, islet-derived T cell lines [2, 6]: recognized
- IL-10 secretion, islet-derived T cell lines [2, 6]: recognized
- TNF-α secretion, islet-derived T cell lines [2, 6]: recognized
- islet derived T cell lines response to DR peptide pools or to single peptides ([2]; donor 6550 lines): donor 6550 lines negative
- islet derived T cell lines response to DR peptide pools or to single peptides ([2]; donor 6579 lines, listed as 148-1): donor 6579 lines positive with TNFa and IL-10 secretion

Sequence: AVPEEEGPTVVLXPHPSLG [148–2]
- islet derived T cell lines response to DR peptide pools or to single peptides ([2]; donor 6579 lines, listed as 148-2): donor 6579 lines positive with IFNg, TNFa and IL-10 secretion

Sequence: QSIEGGAHEGLQHLGP [peptide 191]
- T1D Donor T cell response [3, 7]: 0/4
- non-T1D Donor T cell response [3, 7]: 0/4
- IL-10 secretion, islet-derived T cell lines ([2]; DRB1*03:01+ donor 6550, cytokine bead array (Figure 6H)): recognized
- islet derived T cell lines response to DR peptide pools or to single peptides ([2]; donor 6550 lines): donor 6550 lines positive with IL-10 secretion
- islet derived T cell lines response to DR peptide pools or to single peptides ([2]; donor 6579 lines): donor 6579 lines negative

Sequence: APGYLAITKKVAVPY [compound 30]
- T1D Donor T cell response ([3]; DR3/DQ Set Peptides): 3/4
- non-T1D Donor T cell response ([3]; DR3/DQ Set Peptides): 1/2
- Number of donors whose CD4 T cells recognized the peptide (IFN-γ ELISpot) [3]: three of the donors

Sequence: DDALVRQDAQDLYEAG [compound 9]
- T1D Donor T cell response ([3]; DR3/DQ Set Peptides): 0/4
- non-T1D Donor T cell response ([3]; DR3/DQ Set Peptides): 0/2

Sequence: AEDLQVGQVELGGGPGAGSLQPL [compound 145, non-modified native peptide, pool PTM DR3]
- T1D Donor T cell response [3, 5]: 0/4
- non-T1D Donor T cell response [3, 5]: 0/4

Sequence: KRPAIWIDTGIHSRE [peptide 10]
- T1D Donor T cell response ([3]; DR3/DQ Set Peptides): 4/4
- non-T1D Donor T cell response ([3]; DR3/DQ Set Peptides): 2/2
- Number of donors whose CD4 T cells recognized the peptide (IFN-γ ELISpot) [3]: all four donors
- IFN-γ ELISpot response of expanded CD4+ T cells ([3]; control donor LSLP-074, frequencies ∼10-fold lower than for T1D-004 (Figures 5E, 5F, S5B)): responded

Sequence: YYYIQQDTKGDYQK [peptide 7]
- T1D Donor T cell response ([3]; DR3/DQ Set Peptides): 0/4
- non-T1D Donor T cell response ([3]; DR3/DQ Set Peptides): 0/2

Sequence: NPANPAILSEASAPIPHDG [compound 27]
- T1D Donor T cell response ([3]; DR3/DQ Set Peptides): 0/4
- non-T1D Donor T cell response ([3]; DR3/DQ Set Peptides): 0/2

Sequence: GVSDQSFQVEEAKRIKQ [compound 25]
- T1D Donor T cell response ([3]; DR3/DQ Set Peptides): 0/4
- non-T1D Donor T cell response ([3]; DR3/DQ Set Peptides): 0/2

Sequence: GSHLVEALYLVCGEXGF [146-2]
- T1D Donor T cell response [3, 5]: 0/4
- non-T1D Donor T cell response [3, 5]: 0/4

Sequence: RQRYEILTPNSIPK [compound 26]
- T1D Donor T cell response ([3]; DR3/DQ Set Peptides): 2/4
- non-T1D Donor T cell response ([3]; DR3/DQ Set Peptides): 0/2

Sequence: SVPHFSDEDKDPE [compound 147, non-modified native peptide, pool PTM DR3]
- T1D Donor T cell response [3, 5]: 0/4
- non-T1D Donor T cell response [3, 5]: 0/4

Sequence: IDQINTDLNLERSHA [compound 17]
- T1D Donor T cell response ([3]; DR3/DQ Set Peptides): 0/4
- non-T1D Donor T cell response ([3]; DR3/DQ Set Peptides): 0/2

Sequence: ELXAERPLNEQIAEAE [144-1, PTM peptide, X=dehydroS=dehydroAla, pool PTM DR3]
- T1D Donor T cell response [3, 5]: 0/4
- non-T1D Donor T cell response [3, 5]: 0/4

Sequence: NPAEFVVNTSNAGAG
- T cell recognition by PBMC from a T1D donor (mark E) [3]: NPAE FVVNTSNAG AG ^ E

Sequence: AVPEEEGPTVVLXPHPSLG [AVPEEEGPTVVLXPHPSLG (X=deamindated N=isoasp)]
- T cell recognition by PBMC from a T1D donor [3]: AVPEEEGPTVVLXPHPSLG^E,G (X=deamindated N=isoasp)

Sequence: QDPELPDKNMFTINRNTGVIS [compound 29]
- T1D Donor T cell response ([3]; DR3/DQ Set Peptides): 2/4
- non-T1D Donor T cell response ([3]; DR3/DQ Set Peptides): 0/2

Sequence: EDYYVSKSAVVFGG [compound 28]
- T1D Donor T cell response ([3]; DR3/DQ Set Peptides): 2/4
- non-T1D Donor T cell response ([3]; DR3/DQ Set Peptides): 1/2

Sequence: RSAAVLALL [compound 175]
- T1D Donor T cell response [1, 8]: 1/5
- non-T1D Donor T cell response [1, 8]: 0/4
- IFN-γ secretion, islet-derived T cell lines [2, 9]: strong
- IL-10 secretion, islet-derived T cell lines [2, 9]: strong
- TNF-α secretion, islet-derived T cell lines [2, 9]: strong
- islet derived T cell lines response to A2-S peptide pools or to single peptides ([2]; donor 6551 lines): donor 6551 lines positive for IFNg, TNFa, IL10 secretion

Sequence: ETDKEQLTAEAKELRQK
- T cell recognition by PBMC from a T1D donor (mark E) [3]: ETDKEQ LTAEAKELR QK ^ E

Sequence: AAAFVNQHL [compound 171]
- T1D Donor T cell response [1, 8]: 0/6
- non-T1D Donor T cell response [1, 8]: 0/4
- islet derived T cell lines response to A2-S peptide pools or to single peptides ([2]; donor 6551 lines): donors 6551 and 6578 lines negative
- islet derived T cell lines response to A2-S peptide pools or to single peptides ([2]; donor 6578 lines): donors 6551 and 6578 lines negative

Sequence: NPAEFVVNTSNAGAG [compound 22]
- T1D Donor T cell response ([3]; DR3/DQ Set Peptides): 0/4
- non-T1D Donor T cell response ([3]; DR3/DQ Set Peptides): 0/2

Sequence: GFPTIYFSPANKKLNPK [compound 154]
- T1D Donor T cell response ([3]; HPAP-DR3 Pool Peptides): 0/4
- non-T1D Donor T cell response ([3]; HPAP-DR3 Pool Peptides): 0/4

Sequence: ELSAERPLNEQIAEAE [compound 144, non-modified native peptide, pool PTM DR3]
- T1D Donor T cell response [3, 5]: 0/4
- non-T1D Donor T cell response [3, 5]: 0/4

Sequence: NYPSLELDKMAHG [peptide 182]
- T1D Donor T cell response [3, 7]: 0/4
- non-T1D Donor T cell response [3, 7]: 0/4
- IL-10 secretion, islet-derived T cell lines [2, 6]: recognized
- islet derived T cell lines response to DR peptide pools or to single peptides ([2]; donor 6579 lines): donor 6579 lines positive with IL-10 secretion

Sequence: IDSLIELSTKLHLPADD [compound 153]
- T1D Donor T cell response ([3]; HPAP-DR3 Pool Peptides): 0/4
- non-T1D Donor T cell response ([3]; HPAP-DR3 Pool Peptides): 0/4

Sequence: KSIYFVAGL [compound 173]
- T1D Donor T cell response [1, 8]: 0/6
- non-T1D Donor T cell response [1, 8]: 0/4
- islet derived T cell lines response to A2-S peptide pools or to single peptides ([2]; donor 6551 lines): donors 6551 and 6578 lines negative
- islet derived T cell lines response to A2-S peptide pools or to single peptides ([2]; donor 6578 lines): donors 6551 and 6578 lines negative

Sequence: SSPLDNKLNVEDVDSTKN [compound 188, secretory hormone eluted peptide from SCG3, pool SEC DR3]
- T1D Donor T cell response [3, 7]: 0/4
- non-T1D Donor T cell response [3, 7]: 1/4
- IFN-γ ELISpot response of expanded CD4 T cells ([3]; control donor LSLP-153, line expanded with megapool HPAP-DR3 + SEC-DR3, tested with individual peptides (Figure S5C)): IFN-γ responses

Sequence: GSEEYRAPRPQSEESWDEED [compound 181, secretory hormone eluted peptide, pool SEC DR3]
- T1D Donor T cell response [3, 7]: 0/4
- non-T1D Donor T cell response [3, 7]: 1/4

Sequence: ELSAERPLNEQIAEAE [peptide 32]
- T1D Donor T cell response ([3]; DR3/DQ Set Peptides): 1/4
- non-T1D Donor T cell response ([3]; DR3/DQ Set Peptides): 0/2

Sequence: LEKDIISDTSGDFRK [compound 8]
- T1D Donor T cell response ([3]; DR3/DQ Set Peptides): 0/4
- non-T1D Donor T cell response ([3]; DR3/DQ Set Peptides): 0/2

Sequence: VPGNALVVDPRRPFRK [compound 12]
- T1D Donor T cell response ([3]; DR3/DQ Set Peptides): 1/4
- non-T1D Donor T cell response ([3]; DR3/DQ Set Peptides): 0/2

Sequence: IPGYIVDDSVRVEQ [peptide 19]
- T1D Donor T cell response ([3]; DR3/DQ Set Peptides): 0/4
- non-T1D Donor T cell response ([3]; DR3/DQ Set Peptides): 0/2

Sequence: RQRYEILTPNSIPK
- T cell recognition by PBMC from a T1D donor (mark E) [3]: RQR YEILTPNS IPK ^ E

Sequence: DNMNDNFLEGEEENELTLN [compound 185, secretory hormone eluted peptide, pool SEC DR3]
- T1D Donor T cell response [3, 7]: 0/4
- non-T1D Donor T cell response [3, 7]: 0/4

Sequence: LNKSINPDEAVAYGAA
- T cell recognition by PBMC from a T1D donor [3]: LNKS INPDEAVAY GAA ^ E
